Test results as given in ChEMBL document CHEMBL1201862, “PubChem BioAssay data set” (2004).
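Step 1: Grow cells in 96-well plates. Step 2: Expose to compound for 48 hours at 5 concentrations. Step 3: Interpolate endpoints linearly; if unreached, use highest concentration. GI50: concentration for 50% inhibition of growth.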 Activity calls are given as the source filed them. Cut-off read from the data, not from the text of the source: active = GI50 up to about 1.1 µM and inactive = higher.

Tests used:
Test in all cases: NCI-60 cell line screen, 48 h
[1] = tested on: SF-295
[2] = tested on: NCI-H522
[3] = tested on: IGROV-1
[4] = tested on: KM12
[5] = tested on: UO-31
[6] = tested on: SK-MEL-2
[7] = tested on: DLD-1
[8] = tested on: SK-OV-3
[9] = tested on: SK-MEL-28
[10] = tested on: M19-MEL
[11] = tested on: DMS-273
[12] = tested on: HOP-18
[13] = tested on: MOLT-4
[14] = tested on: NCI-H226
[15] = tested on: NCI-H460
[16] = tested on: RPMI-8226
[17] = tested on: EKVX
[18] = tested on: U-251
[19] = tested on: Malme-3M
[20] = tested on: NCI-H23
[21] = tested on: OVCAR-3
[22] = tested on: SNB-19
[23] = tested on: CAKI-1
[24] = tested on: SN12C
[25] = tested on: RXF 631
[26] = tested on: HOP-62
[27] = tested on: 786-0
[28] = tested on: COLO 205
[29] = tested on: K562
[30] = tested on: SNB-75
[31] = tested on: A498
[32] = tested on: KM-20L2
[33] = tested on: SK-MEL-5
[34] = tested on: HCT-15
[35] = tested on: ACHN
[36] = tested on: HT-29
[37] = tested on: HCT-116
[38] = tested on: OVCAR-8
[39] = tested on: LXFL 529
[40] = tested on: A549
[41] = tested on: OVCAR-4
[42] = tested on: OVCAR-5
[43] = tested on: SW-620
[44] = tested on: SNB-78
[45] = tested on: SF-539
[46] = tested on: HL-60
[47] = tested on: HOP-92
[48] = tested on: M14
[49] = tested on: SR
[50] = tested on: UACC-257
[51] = tested on: TK-10
[52] = tested on: RXF 393
[53] = tested on: CCRF-CEM
[54] = tested on: UACC-62
[55] = tested on: DMS-114

COc1ccc2c(c1)[n+]([O-])c(-c1nc3ccccc3s1)c(N)[n+]2[O-]
GI50 [1]: > 100 µM (inactive) | GI50 [2]: 51.3 µM (inactive) | GI50 [3]: > 100 µM (inactive) | GI50 [4]: > 100 µM (inactive) | GI50 [5]: 34 µM (inactive) | GI50 [6]: > 100 µM (inactive) | GI50 [7]: 69.2 µM (inactive) | GI50 [8]: > 100 µM (inactive) | GI50 [9]: 55.6 µM (inactive) | GI50 [10]: 49.7 µM (inactive) | GI50 [11]: > 100 µM (inactive) | GI50 [12]: > 100 µM (inactive) | GI50 [13]: 43.8 µM (inactive) | GI50 [14]: > 100 µM (inactive) | GI50 [15]: 47.3 µM (inactive) | GI50 [16]: 35.5 µM (inactive) | GI50 [17]: > 100 µM (inactive) | GI50 [18]: 78 µM (inactive) | GI50 [19]: > 100 µM (inactive) | GI50 [20]: 64.9 µM (inactive) | GI50 [21]: 78.7 µM (inactive) | GI50 [22]: > 100 µM (inactive) | GI50 [23]: > 100 µM (inactive) | GI50 [24]: > 100 µM (inactive) | GI50 [25]: 88.5 µM (inactive) | GI50 [26]: > 100 µM (inactive) | GI50 [27]: > 100 µM (inactive) | GI50 [28]: 36.5 µM (inactive) | GI50 [29]: 64.4 µM (inactive) | GI50 [30]: 39.1 µM (inactive) | GI50 [31]: 45.8 µM (inactive) | GI50 [32]: > 100 µM (inactive) | GI50 [33]: 38.8 µM (inactive) | GI50 [34]: 89.5 µM | GI50 [35]: 93.1 µM (inactive) | GI50 [36]: > 100 µM (inactive) | GI50 [37]: 54.3 µM (inactive) | GI50 [38]: > 100 µM (inactive) | GI50 [39]: 58.1 µM (inactive) | GI50 [40]: > 100 µM (inactive) | GI50 [41]: > 100 µM (inactive) | GI50 [42]: > 100 µM (inactive) | GI50 [43]: > 100 µM (inactive) | GI50 [44]: > 100 µM (inactive) | GI50 [45]: > 100 µM (inactive) | GI50 [46]: 39.4 µM (inactive) | GI50 [47]: > 100 µM (inactive) | GI50 [48]: > 100 µM (inactive) | GI50 [49]: 59.6 µM (inactive) | GI50 [50]: 63.5 µM (inactive)

NCC(=O)NC(CCCC(NC(=O)CN)P(=O)(O)O)P(=O)(O)O (stereo not given)
GI50 [1]: > 100 µM (inactive) | GI50 [2]: > 100 µM (inactive) | GI50 [3]: > 100 µM (inactive) | GI50 [4]: > 100 µM (inactive) | GI50 [8]: > 100 µM (inactive) | GI50 [9]: > 100 µM (inactive) | GI50 [10]: > 100 µM (inactive) | GI50 [11]: > 100 µM (inactive) | GI50 [13]: > 100 µM (inactive) | GI50 [14]: 26 µM (inactive) | GI50 [15]: > 100 µM (inactive) | GI50 [17]: > 100 µM (inactive) | GI50 [18]: > 100 µM (inactive) | GI50 [20]: > 100 µM (inactive) | GI50 [51]: > 100 µM (inactive) | GI50 [25]: > 100 µM (inactive) | GI50 [52]: > 100 µM (inactive) | GI50 [26]: > 100 µM (inactive) | GI50 [31]: > 100 µM (inactive) | GI50 [32]: > 100 µM (inactive) | GI50 [53]: > 100 µM (inactive) | GI50 [35]: > 100 µM (inactive) | GI50 [54]: > 100 µM (inactive) | GI50 [36]: > 100 µM (inactive) | GI50 [37]: > 100 µM (inactive) | GI50 [38]: > 100 µM (inactive) | GI50 [55]: > 100 µM (inactive) | GI50 [40]: > 100 µM (inactive) | GI50 [42]: > 100 µM (inactive) | GI50 [44]: > 100 µM (inactive) | GI50 [46]: > 100 µM (inactive) | GI50 [47]: > 100 µM (inactive) | GI50 [48]: > 100 µM (inactive) | GI50 [49]: > 100 µM (inactive) | GI50 [50]: > 100 µM (inactive)
